ChEMBL document CHEMBL2311459, “Naphthyridinone (NTD) integrase inhibitors: N1 protio and methyl combination substituent effects with C3 amide groups” (Bioorg Med Chem Lett, 2013)

tested on: Human immunodeficiency virus; assay: Antiviral activity against HIV in presence of 40 mg/mL of purified human serum albumin; type: functional, organism-based; details: Human immunodeficiency virus 1

IC50 [nM]	Structure (SMILES)
12	CC(=O)NCCNC(=O)c1c(O)c2ncc(Cc3ccc(F)cc3)cc2n(C)c1=O
9	Cn1c(=O)c(C(=O)NCCN2CCNC2=O)c(O)c2ncc(Cc3ccc(F)cc3)cc21
650	CCNC(=O)c1c(O)c2ncc(Cc3ccc(F)cc3)cc2n(C)c1=O
2900	Cn1c(=O)c(C(=O)NCC(F)F)c(O)c2ncc(Cc3ccc(F)cc3)cc21
42	O=C(NCCN1CCOCC1)c1c(O)c2ncc(Cc3ccc(F)cc3)cc2[nH]c1=O
23	Cn1c(=O)c(C(=O)NCCN2CCOCC2)c(O)c2ncc(Cc3ccc(F)cc3)cc21
15	Cn1c(=O)c(C(=O)NCCCN2CCCC2=O)c(O)c2ncc(Cc3ccc(F)cc3)cc21

The remaining lines, values behind:

Structure (SMILES)	IC50 [nM]
O=C(NC1CCS(=O)(=O)CC1)c1c(O)c2ncc(Cc3ccc(F)cc3)cc2[nH]c1=O	170
O=C(NCCCN1CCCC1=O)c1c(O)c2ncc(Cc3ccc(F)cc3)cc2[nH]c1=O	31
CC(C)CCNC(=O)c1c(O)c2ncc(Cc3ccc(F)cc3)cc2[nH]c1=O	230
CCOCCNC(=O)c1c(O)c2ncc(Cc3ccc(F)cc3)cc2[nH]c1=O	65
C[C@H](CO)CNC(=O)c1c(O)c2ncc(Cc3ccc(F)cc3)cc2n(C)c1=O	18
C[C@@H](CO)NC(=O)c1c(O)c2ncc(Cc3ccc(F)cc3)cc2n(C)c1=O	15
C[C@@H](CO)NC(=O)c1c(O)c2ncc(Cc3ccc(F)cc3)cc2[nH]c1=O	19
CC(C)(CO)NC(=O)c1c(O)c2ncc(Cc3ccc(F)cc3)cc2[nH]c1=O	19
COCCNC(=O)c1c(O)c2ncc(Cc3ccc(F)cc3)cc2n(C)c1=O	48
CN1CCN(CCCNC(=O)c2c(O)c3ncc(Cc4ccc(F)cc4)cc3[nH]c2=O)CC1	110
C[C@H](CO)NC(=O)c1c(O)c2ncc(Cc3ccc(F)cc3)cc2n(C)c1=O	11
Cn1c(=O)c(C(=O)NC(C)(C)CO)c(O)c2ncc(Cc3ccc(F)cc3)cc21	28

tested on: not listed separately; assay: Ratio of plasma concentration in CD rat at 1 mg/kg, iv and 5 mg/kg, po after 24 hrs to IC50 for HIV in presence of 40 mg/mL of purified human serum albumin; type: ADME, organism-based; details: in vivo

Ratio	Structure (SMILES)
0	Cn1c(=O)c(C(=O)NCCN2CCNC2=O)c(O)c2ncc(Cc3ccc(F)cc3)cc21
2.7	C[C@@H](CO)NC(=O)c1c(O)c2ncc(Cc3ccc(F)cc3)cc2n(C)c1=O

Structure (SMILES)	Ratio
COCCNC(=O)c1c(O)c2ncc(Cc3ccc(F)cc3)cc2n(C)c1=O	0.1

tested on: Human immunodeficiency virus; assay: Antiviral activity against HIV; type: functional, organism-based; details: Human immunodeficiency virus 1

IC50 [nM]	Structure (SMILES)
2	CC(=O)NCCNC(=O)c1c(O)c2ncc(Cc3ccc(F)cc3)cc2n(C)c1=O
2	Cn1c(=O)c(C(=O)NCCN2CCNC2=O)c(O)c2ncc(Cc3ccc(F)cc3)cc21
2	CCNC(=O)c1c(O)c2ncc(Cc3ccc(F)cc3)cc2n(C)c1=O
1	Cn1c(=O)c(C(=O)NCC(F)F)c(O)c2ncc(Cc3ccc(F)cc3)cc21
6	O=C(NCCN1CCOCC1)c1c(O)c2ncc(Cc3ccc(F)cc3)cc2[nH]c1=O
4	Cn1c(=O)c(C(=O)NCCN2CCOCC2)c(O)c2ncc(Cc3ccc(F)cc3)cc21
2	Cn1c(=O)c(C(=O)NCCCN2CCCC2=O)c(O)c2ncc(Cc3ccc(F)cc3)cc21

The next lines start with the compound.

Structure (SMILES)	IC50 [nM]
O=C(NC1CCS(=O)(=O)CC1)c1c(O)c2ncc(Cc3ccc(F)cc3)cc2[nH]c1=O	48
O=C(NCCCN1CCCC1=O)c1c(O)c2ncc(Cc3ccc(F)cc3)cc2[nH]c1=O	5
CNC(=O)c1c(O)c2ncc(Cc3ccc(F)cc3)cc2[nH]c1=O	3
CC(C)CCNC(=O)c1c(O)c2ncc(Cc3ccc(F)cc3)cc2[nH]c1=O	8
CCOCCNC(=O)c1c(O)c2ncc(Cc3ccc(F)cc3)cc2[nH]c1=O	4
C[C@H](CO)CNC(=O)c1c(O)c2ncc(Cc3ccc(F)cc3)cc2n(C)c1=O	3
C[C@@H](CO)NC(=O)c1c(O)c2ncc(Cc3ccc(F)cc3)cc2n(C)c1=O	1
C[C@@H](CO)NC(=O)c1c(O)c2ncc(Cc3ccc(F)cc3)cc2[nH]c1=O	6
CC(C)(CO)NC(=O)c1c(O)c2ncc(Cc3ccc(F)cc3)cc2[nH]c1=O	2
CN1CCN(CCCNC(=O)c2c(O)c3ncc(Cc4ccc(F)cc4)cc3[nH]c2=O)CC1	28
C[C@H](CO)NC(=O)c1c(O)c2ncc(Cc3ccc(F)cc3)cc2n(C)c1=O	2
Cn1c(=O)c(C(=O)NC(C)(C)CO)c(O)c2ncc(Cc3ccc(F)cc3)cc21	3

tested on: not listed separately; assay: Therapeutic index, ratio of cytotoxicity against human MT4 cells to antiviral activity against HIV; type: cell-based; details: read-out: TI

Structure (SMILES)	selectivity ratio
CC(=O)NCCNC(=O)c1c(O)c2ncc(Cc3ccc(F)cc3)cc2n(C)c1=O	807
Cn1c(=O)c(C(=O)NCCN2CCNC2=O)c(O)c2ncc(Cc3ccc(F)cc3)cc21	1620
O=C(NCCN1CCOCC1)c1c(O)c2ncc(Cc3ccc(F)cc3)cc2[nH]c1=O	> 250
Cn1c(=O)c(C(=O)NCCN2CCOCC2)c(O)c2ncc(Cc3ccc(F)cc3)cc21	165
C[C@H](CO)NC(=O)c1c(O)c2ncc(Cc3ccc(F)cc3)cc2n(C)c1=O	> 12500

tested on: not listed separately; assay: AUC in CD rat at 5 mg/kg, po; type: ADME, organism-based; set-up: dose 5 mg/kg, route oral; details: plasma

AUC [ng·h/mL]	Structure (SMILES)
3550	Cn1c(=O)c(C(=O)NCCN2CCNC2=O)c(O)c2ncc(Cc3ccc(F)cc3)cc21
22600	C[C@@H](CO)NC(=O)c1c(O)c2ncc(Cc3ccc(F)cc3)cc2n(C)c1=O

Structure (SMILES)	AUC [ng·h/mL]
COCCNC(=O)c1c(O)c2ncc(Cc3ccc(F)cc3)cc2n(C)c1=O	1850

target: Human immunodeficiency virus type 1 integrase (Human immunodeficiency virus 1, UniProt Q7ZJM1); assay: Inhibition of HIV1 integrase strand transfer activity; details: not given
Sequence (Q7ZJM1 whole entry): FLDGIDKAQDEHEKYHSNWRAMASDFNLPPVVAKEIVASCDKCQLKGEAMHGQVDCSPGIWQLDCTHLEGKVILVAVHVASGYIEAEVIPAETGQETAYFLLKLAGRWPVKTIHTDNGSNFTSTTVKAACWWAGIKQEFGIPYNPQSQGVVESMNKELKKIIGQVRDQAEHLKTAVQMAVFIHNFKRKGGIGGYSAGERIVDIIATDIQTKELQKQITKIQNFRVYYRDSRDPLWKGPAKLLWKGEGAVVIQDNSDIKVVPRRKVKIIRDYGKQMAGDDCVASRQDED

IC50 [nM]	Structure (SMILES)
5	CC(=O)NCCNC(=O)c1c(O)c2ncc(Cc3ccc(F)cc3)cc2n(C)c1=O
5	Cn1c(=O)c(C(=O)NCCN2CCNC2=O)c(O)c2ncc(Cc3ccc(F)cc3)cc21
4	CCNC(=O)c1c(O)c2ncc(Cc3ccc(F)cc3)cc2n(C)c1=O
5	Cn1c(=O)c(C(=O)NCC(F)F)c(O)c2ncc(Cc3ccc(F)cc3)cc21
7	O=C(NCCN1CCOCC1)c1c(O)c2ncc(Cc3ccc(F)cc3)cc2[nH]c1=O
13	Cn1c(=O)c(C(=O)NCCN2CCOCC2)c(O)c2ncc(Cc3ccc(F)cc3)cc21
16	Cn1c(=O)c(C(=O)NCCCN2CCCC2=O)c(O)c2ncc(Cc3ccc(F)cc3)cc21

Second part, the compound before the results:

Structure (SMILES)	IC50 [nM]
O=C(NC1CCS(=O)(=O)CC1)c1c(O)c2ncc(Cc3ccc(F)cc3)cc2[nH]c1=O	9
O=C(NCCCN1CCCC1=O)c1c(O)c2ncc(Cc3ccc(F)cc3)cc2[nH]c1=O	4
CNC(=O)c1c(O)c2ncc(Cc3ccc(F)cc3)cc2[nH]c1=O	6
CC(C)CCNC(=O)c1c(O)c2ncc(Cc3ccc(F)cc3)cc2[nH]c1=O	5
CCOCCNC(=O)c1c(O)c2ncc(Cc3ccc(F)cc3)cc2[nH]c1=O	9
C[C@H](CO)CNC(=O)c1c(O)c2ncc(Cc3ccc(F)cc3)cc2n(C)c1=O	4
C[C@@H](CO)NC(=O)c1c(O)c2ncc(Cc3ccc(F)cc3)cc2n(C)c1=O	4
NC(=O)c1c(O)c2ncc(Cc3ccc(F)cc3)cc2[nH]c1=O	45
C[C@@H](CO)NC(=O)c1c(O)c2ncc(Cc3ccc(F)cc3)cc2[nH]c1=O	4
CC(C)(CO)NC(=O)c1c(O)c2ncc(Cc3ccc(F)cc3)cc2[nH]c1=O	3
COCCNC(=O)c1c(O)c2ncc(Cc3ccc(F)cc3)cc2n(C)c1=O	4
CN1CCN(CCCNC(=O)c2c(O)c3ncc(Cc4ccc(F)cc4)cc3[nH]c2=O)CC1	11
C[C@H](CO)NC(=O)c1c(O)c2ncc(Cc3ccc(F)cc3)cc2n(C)c1=O	8
Cn1c(=O)c(C(=O)NC(C)(C)CO)c(O)c2ncc(Cc3ccc(F)cc3)cc21	6

tested on: not listed separately; assay: AUC in dog at 5 mg/kg, po; type: ADME, organism-based, Canis lupus familiaris; set-up: dose 5 mg/kg, route oral; details: plasma

Structure (SMILES)	AUC [ng·h/mL]
C[C@@H](CO)NC(=O)c1c(O)c2ncc(Cc3ccc(F)cc3)cc2n(C)c1=O	1120
COCCNC(=O)c1c(O)c2ncc(Cc3ccc(F)cc3)cc2n(C)c1=O	1240

tested on: not listed separately; assay: Half life in CD rat at 1 mg/kg, iv and 5 mg/kg, po; type: ADME, organism-based; details: in vivo

Structure (SMILES)	half-life [h]
COCCNC(=O)c1c(O)c2ncc(Cc3ccc(F)cc3)cc2n(C)c1=O	4

tested on: not listed separately; assay: Ratio of plasma concentration in dog at 1 mg/kg, iv and 5 mg/kg, po after 24 hrs to IC50 for HIV in presence of 40 mg/mL of purified human serum albumin; type: ADME, organism-based; details: in vivo

Structure (SMILES)	Ratio
C[C@@H](CO)NC(=O)c1c(O)c2ncc(Cc3ccc(F)cc3)cc2n(C)c1=O	0
COCCNC(=O)c1c(O)c2ncc(Cc3ccc(F)cc3)cc2n(C)c1=O	0

tested on: Human immunodeficiency virus; assay: Antiviral activity against HIV infected in human MT4 cells; type: functional, organism-based; details: Human immunodeficiency virus 1, MT4

IC50 [nM]	Structure (SMILES)
22	CC(=O)NCCNC(=O)c1c(O)c2ncc(Cc3ccc(F)cc3)cc2n(C)c1=O
11	Cn1c(=O)c(C(=O)NCCN2CCNC2=O)c(O)c2ncc(Cc3ccc(F)cc3)cc21
32	O=C(NCCN1CCOCC1)c1c(O)c2ncc(Cc3ccc(F)cc3)cc2[nH]c1=O
64	Cn1c(=O)c(C(=O)NCCN2CCOCC2)c(O)c2ncc(Cc3ccc(F)cc3)cc21
4	C[C@H](CO)NC(=O)c1c(O)c2ncc(Cc3ccc(F)cc3)cc2n(C)c1=O
